Measurements as given in ChEMBL document CHEMBL1201862, “PubChem BioAssay data set” (2004).
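Five concentrations, 48 hours, 96-well plates. The concentration for 50% growth inhibition is given as GI50.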 Calls of active or inactive are those of the source. No stated cut-off is given here; in the data, active = GI50 up to about 1.1 µM and inactive = higher.

How the values were obtained:
Test in all cases: DTP human tumour cell line panel, 48 h
HOP-62 = test system: HOP-62
MDA-MB-435 = test system: MDA-MB-435
MDA-N = test system: MDA-N
OVCAR-3 = test system: OVCAR-3
HCT-15 = test system: HCT-15
SNB-19 = test system: SNB-19
IGROV-1 = test system: IGROV-1
COLO 205 = test system: COLO 205
NCI/ADR-RES = test system: NCI/ADR-RES
SW-620 = test system: SW-620
LOX IMVI = test system: LOX IMVI
SK-OV-3 = test system: SK-OV-3
OVCAR-5 = test system: OVCAR-5
786-0 = test system: 786-0
M14 = test system: M14
TK-10 = test system: TK-10
UACC-257 = test system: UACC-257
EKVX = test system: EKVX
KM12 = test system: KM12
SNB-75 = test system: SNB-75
NCI-H226 = test system: NCI-H226
CCRF-CEM = test system: CCRF-CEM
OVCAR-4 = test system: OVCAR-4
A498 = test system: A498
RXF 393 = test system: RXF 393
BT-549 = test system: BT-549
ACHN = test system: ACHN
SN12C = test system: SN12C
SF-268 = test system: SF-268
U-251 = test system: U-251
RPMI-8226 = test system: RPMI-8226
NCI-H460 = test system: NCI-H460
OVCAR-8 = test system: OVCAR-8
MDA-MB-231 = test system: MDA-MB-231
Malme-3M = test system: Malme-3M
HCT-116 = test system: HCT-116
SF-295 = test system: SF-295
MOLT-4 = test system: MOLT-4
DU-145 = test system: DU-145
NCI-H23 = test system: NCI-H23
HOP-92 = test system: HOP-92
SK-MEL-28 = test system: SK-MEL-28
HT-29 = test system: HT-29
UO-31 = test system: UO-31
SK-MEL-5 = test system: SK-MEL-5
CAKI-1 = test system: CAKI-1
SF-539 = test system: SF-539
NCI-H522 = test system: NCI-H522
A549 = test system: A549
T47D = test system: T47D
SK-MEL-2 = test system: SK-MEL-2
MCF7 = test system: MCF7
PC-3 = test system: PC-3
K562 = test system: K562
HL-60 = test system: HL-60
HCC 2998 = test system: HCC 2998
SR = test system: SR
Hs-578T = test system: Hs-578T
UACC-62 = test system: UACC-62

For N#CC(c1nc2ccccc2s1)c1ncnc(Cl)c1[N+](=O)[O-] (stereo unspecified), the GI50 (HOP-62) was 28.8 µM (inactive), the GI50 (MDA-MB-435) was 29.2 µM (inactive) and the GI50 (MDA-N) was 18.2 µM (inactive). The GI50 (OVCAR-3) was 20.1 µM (inactive), the GI50 (HCT-15) was 17.9 µM and the GI50 (SNB-19) was 32.1 µM (inactive). For the same compound, the GI50 (IGROV-1) was 14.6 µM (inactive), the GI50 (COLO 205) was 15.5 µM (inactive) and the GI50 (NCI/ADR-RES) was 17.8 µM (inactive). For the same compound, the GI50 (SW-620) was 19.3 µM (inactive), the GI50 (LOX IMVI) was 17.3 µM (inactive) and the GI50 (SK-OV-3) was 37.8 µM (inactive). For the same compound, the GI50 (OVCAR-5) was 24.3 µM (inactive), the GI50 (786-0) was 20.1 µM (inactive) and the GI50 (M14) was 17.5 µM (inactive). For the same compound, the GI50 (TK-10) was 34.3 µM (inactive), the GI50 (UACC-257) was 20.6 µM (inactive) and the GI50 (EKVX) was 23.2 µM (inactive). For the same compound, the GI50 (KM12) was 32.5 µM (inactive), the GI50 (SNB-75) was 22.9 µM (inactive) and the GI50 (NCI-H226) was 20.2 µM (inactive). For the same compound, the GI50 (CCRF-CEM) was 0.361 µM (active), the GI50 (OVCAR-4) was 27.7 µM (inactive) and the GI50 (A498) was > 100 µM (inactive). The GI50 (RXF 393) was 25.5 µM (inactive), the GI50 (BT-549) was 22.9 µM (inactive) and the GI50 (ACHN) was 37.6 µM (inactive). For the same compound, the GI50 (SN12C) was 18.2 µM (inactive), the GI50 (SF-268) was 17.5 µM (inactive) and the GI50 (U-251) was 32.7 µM (inactive). The GI50 (RPMI-8226) was 28.1 µM (inactive), the GI50 (NCI-H460) was 20.3 µM (inactive) and the GI50 (OVCAR-8) was 18.5 µM (inactive). The GI50 (MDA-MB-231) was 30.8 µM (inactive), the GI50 (Malme-3M) was 19.4 µM (inactive) and the GI50 (HCT-116) was 12.6 µM (inactive). For the same compound, the GI50 (SF-295) was > 100 µM (inactive), the GI50 (MOLT-4) was 31.8 µM (inactive) and the GI50 (DU-145) was 34.1 µM (inactive). The GI50 (NCI-H23) was 16.5 µM (inactive), the GI50 (HOP-92) was 17.3 µM (inactive) and the GI50 (SK-MEL-28) was 19.9 µM (inactive). The GI50 (HT-29) was 17.4 µM (inactive), the GI50 (UO-31) was 27.9 µM (inactive) and the GI50 (SK-MEL-5) was 15.8 µM (inactive). The GI50 (CAKI-1) was 25.2 µM (inactive), the GI50 (SF-539) was 30.3 µM (inactive) and the GI50 (NCI-H522) was 18.9 µM (inactive). The GI50 (A549) was 36.3 µM (inactive) and the GI50 (T47D) was 29.1 µM (inactive).

C(CCCCc1nnc(N2CCOCC2)o1)CCCc1nnc(N2CCOCC2)o1 was tested, and the GI50 (HOP-62) was > 100 µM (inactive), the GI50 (MDA-MB-435) was > 100 µM (inactive) and the GI50 (MDA-N) was > 100 µM (inactive). For the same compound, the GI50 (OVCAR-3) was > 100 µM (inactive), the GI50 (HCT-15) was greater than 100 µM and the GI50 (SNB-19) was > 100 µM (inactive). The GI50 (IGROV-1) was > 100 µM (inactive), the GI50 (COLO 205) was > 100 µM (inactive) and the GI50 (NCI/ADR-RES) was > 100 µM (inactive). The GI50 (SW-620) was > 100 µM (inactive), the GI50 (LOX IMVI) was > 100 µM (inactive) and the GI50 (SK-OV-3) was > 100 µM (inactive). For the same compound, the GI50 (OVCAR-5) was > 100 µM (inactive), the GI50 (SK-MEL-2) was > 100 µM (inactive) and the GI50 (786-0) was > 100 µM (inactive). The GI50 (M14) was > 100 µM (inactive), the GI50 (TK-10) was > 100 µM (inactive) and the GI50 (UACC-257) was > 100 µM (inactive). The GI50 (EKVX) was > 100 µM (inactive), the GI50 (KM12) was > 100 µM (inactive) and the GI50 (SNB-75) was > 100 µM (inactive). For the same compound, the GI50 (NCI-H226) was > 100 µM (inactive), the GI50 (MCF7) was > 100 µM (inactive) and the GI50 (CCRF-CEM) was > 100 µM (inactive). For the same compound, the GI50 (OVCAR-4) was > 100 µM (inactive), the GI50 (A498) was > 100 µM (inactive) and the GI50 (RXF 393) was > 100 µM (inactive). The GI50 (BT-549) was > 100 µM (inactive), the GI50 (ACHN) was > 100 µM (inactive) and the GI50 (SN12C) was > 100 µM (inactive). For the same compound, the GI50 (U-251) was > 100 µM (inactive), the GI50 (NCI-H460) was > 100 µM (inactive) and the GI50 (OVCAR-8) was > 100 µM (inactive). For the same compound, the GI50 (MDA-MB-231) was > 100 µM (inactive), the GI50 (HCT-116) was > 100 µM (inactive) and the GI50 (SF-295) was > 100 µM (inactive). For the same compound, the GI50 (MOLT-4) was > 100 µM (inactive), the GI50 (DU-145) was > 100 µM (inactive) and the GI50 (PC-3) was > 100 µM (inactive). The GI50 (NCI-H23) was > 100 µM (inactive), the GI50 (HOP-92) was > 100 µM (inactive) and the GI50 (SK-MEL-28) was > 100 µM (inactive). For the same compound, the GI50 (K562) was > 100 µM (inactive), the GI50 (HT-29) was > 100 µM (inactive) and the GI50 (HL-60) was > 100 µM (inactive). The GI50 (UO-31) was > 100 µM (inactive), the GI50 (SK-MEL-5) was > 100 µM (inactive) and the GI50 (CAKI-1) was > 100 µM (inactive). For the same compound, the GI50 (SF-539) was > 100 µM (inactive) and the GI50 (A549) was > 100 µM (inactive).

For CC(C)[C@@H]1NC(=O)[C@@H]2N=C(O[C@H]2C)[C@H](C(C)C)NC(=O)C2N=C1O[C@H]2C, the GI50 (HCC 2998) was > 100 µM (inactive), the GI50 (HOP-62) was > 100 µM (inactive) and the GI50 (MDA-MB-435) was > 100 µM (inactive). For the same compound, the GI50 (MDA-N) was > 100 µM (inactive), the GI50 (OVCAR-3) was > 100 µM (inactive) and the GI50 (HCT-15) was greater than 100 µM. For the same compound, the GI50 (SNB-19) was > 100 µM (inactive), the GI50 (IGROV-1) was > 100 µM (inactive) and the GI50 (COLO 205) was > 100 µM (inactive). For the same compound, the GI50 (NCI/ADR-RES) was > 100 µM (inactive), the GI50 (SR) was > 100 µM (inactive) and the GI50 (SW-620) was > 100 µM (inactive). The GI50 (LOX IMVI) was > 100 µM (inactive), the GI50 (OVCAR-5) was > 100 µM (inactive) and the GI50 (SK-MEL-2) was > 100 µM (inactive). The GI50 (786-0) was > 100 µM (inactive), the GI50 (M14) was > 100 µM (inactive) and the GI50 (Hs-578T) was > 100 µM (inactive). For the same compound, the GI50 (TK-10) was > 100 µM (inactive), the GI50 (UACC-257) was > 100 µM (inactive) and the GI50 (EKVX) was > 100 µM (inactive). For the same compound, the GI50 (KM12) was > 100 µM (inactive), the GI50 (SNB-75) was > 100 µM (inactive) and the GI50 (NCI-H226) was > 100 µM (inactive). The GI50 (MCF7) was > 100 µM (inactive), the GI50 (CCRF-CEM) was > 100 µM (inactive) and the GI50 (UACC-62) was > 100 µM (inactive). The GI50 (OVCAR-4) was > 100 µM (inactive), the GI50 (A498) was > 100 µM (inactive) and the GI50 (RXF 393) was > 100 µM (inactive). For the same compound, the GI50 (ACHN) was > 100 µM (inactive), the GI50 (SN12C) was > 100 µM (inactive) and the GI50 (SF-268) was > 100 µM (inactive). The GI50 (RPMI-8226) was > 100 µM (inactive), the GI50 (NCI-H460) was > 100 µM (inactive) and the GI50 (OVCAR-8) was > 100 µM (inactive). The GI50 (MDA-MB-231) was > 100 µM (inactive), the GI50 (Malme-3M) was > 100 µM (inactive) and the GI50 (HCT-116) was > 100 µM (inactive). For the same compound, the GI50 (SF-295) was > 100 µM (inactive), the GI50 (MOLT-4) was > 100 µM (inactive) and the GI50 (DU-145) was > 100 µM (inactive). The GI50 (PC-3) was > 100 µM (inactive), the GI50 (NCI-H23) was > 100 µM (inactive) and the GI50 (HOP-92) was 94.4 µM (inactive). For the same compound, the GI50 (SK-MEL-28) was > 100 µM (inactive), the GI50 (K562) was > 100 µM (inactive) and the GI50 (HT-29) was > 100 µM (inactive). The GI50 (HL-60) was > 100 µM (inactive), the GI50 (UO-31) was > 100 µM (inactive) and the GI50 (SK-MEL-5) was > 100 µM (inactive). The GI50 (CAKI-1) was > 100 µM (inactive), the GI50 (SF-539) was > 100 µM (inactive) and the GI50 (NCI-H522) was > 100 µM (inactive). For the same compound, the GI50 (A549) was > 100 µM (inactive) and the GI50 (T47D) was > 100 µM (inactive).
